31 compounds from patent US12404283B2, “c-MYC mRNA translation modulators and uses thereof in the treatment of cancer” (Anima Biotech Inc., priority 2022, dated 2025) can be followed below.

This test relates to c-Myc. In words: c-Myc immunofluorescence assay. To be noted: A549 cells, 24 hours treatment, anti-c-Myc immunofluorescence. It is filed as cell-based, human. The gist of the method:
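A549 cells grown 48 h, exposed 24 h to rising compound concentrations, then fixed, permeabilised and stained for c-Myc plus DAPI. Nuclear-segmented c-Myc fluorescence quantified by high-content imaging at 20×; EC50 from logistic dose–response fits.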

Consider `CCN(CC)CCCNC(=O)c1ccc2c(c1)sc1nc(-c3ccc(C4COC4)cc3)cn12` [compound 173, N-(3-(diethylamino)propyl)-2-(4-(oxetan-3-yl)phenyl)benzo[d]imidazo [2,1-b]thiazole-7-carboxamide], for which the “Myc Efficacy (−LogEC50)” value is “++ (++ ≥5 and <6)”.

`CNC(=O)c1ccc(-c2cn3c(n2)sc2cc(C(=O)NCCCN4CCCCC4)ccc23)cc1` [compound 174, 2-(4-(methylcarbamoyl)phenyl)-N-(3-(piperidin-1-yl)propyl)benzo[d]imidazo [2,1-b]thiazole-7-carboxamide]: the “Myc Efficacy (−LogEC50)” value is “+++ (+++ ≥6)”.

On to `CNC(=O)c1ccc(-c2cn3c(n2)sc2cc(C(=O)NCCCN4CCNCC4)ccc23)cc1` [compound 175, 2-(4-(methylcarbamoyl)phenyl)-N-(3-(piperazin-1-yl)propyl)benzo[d]imidazo [2,1-b]thiazole-7-carboxamide], for which the “Myc Efficacy (−LogEC50)” value was “− (− ≤3)”.

With `CNC(=O)c1ccc(-c2cn3c(n2)sc2cc(C(=O)NCC4CCN(C)C4)ccc23)cc1` (stereo not shown) [compound 176, 2-(4-(methylcarbamoyl)phenyl)-N-((1-methylpyrrolidin-3-yl)methyl)benzo[d]imidazo [2,1-b]thiazole-7-carboxamide], the “Myc Efficacy (−LogEC50)” value was “− (− ≤3)”.

For the compound `CCN(CCCNC(=O)c1ccc2c(c1)sc1nc(-c3cccc(C)c3)cn12)CC(F)(F)F` [compound 177, N-(3-(ethyl(2,2,2-trifluoroethyl)amino)propyl)-2-(m-tolyl)benzo[d]imidazo[2,1-b]thiazole-7-carboxamide], the “Myc Efficacy (−LogEC50)” value is “+ (+ >3 and <5)”.

For the compound `Cc1cccc(-c2cn3c(n2)sc2cc(C(=O)NCCCNCC(F)(F)F)ccc23)c1` [compound 178, 2-(m-tolyl)-N-(3-((2,2,2-trifluoroethyl)amino)propyl) benzo[d]imidazo[2,1-b]thiazole-7-carboxamide], the “Myc Efficacy (−LogEC50)” value was “+ (+ >3 and <5)”.

For the compound `CCN(CC)CCCNC(=O)c1ccc2c(c1)sc1nc(-c3ccc(N4CCCC4=O)cc3)cn12` [compound 179, N-(3-(diethylamino)propyl)-2-(4-(2-oxopyrrolidin-1-yl)phenyl)benzo[d]imidazo [2,1-b]thiazole-7-carboxamide], the “Myc Efficacy (−LogEC50)” value was “+ (+ >3 and <5)”.

Consider `CCN(CC)CCCN(C)C(=O)c1ccc2c(c1)sc1nc(-c3ccc(C(=O)NC)cc3)cn12` [compound 180, N-(3-(diethylamino)propyl)-N-methyl-2-(4-(methylcarbamoyl)phenyl) benzo[d]imidazo[2,1-b]thiazole-7-carboxamide], for which the “Myc Efficacy (−LogEC50)” value is “+ (+ >3 and <5)”.

Take `CCN(CC)CCCN(C)C(=O)c1ccc2c(c1)sc1nc(-c3cccc(C)c3)cn12` [compound 181, N-(3-(diethylamino)propyl)-N-methyl-2-(m-tolyl)benzo[d]imidazo[2,1-b]thiazole-7-carboxamide]: the “Myc Efficacy (−LogEC50)” value is “++ (++ ≥5 and <6)”.

Take `CNC(=O)c1ccc(-c2cn3c(n2)sc2cc(C(=O)NC[C@H]4COCCO4)ccc23)cc1` [compound 182, (S)-N-((1,4-dioxan-2-yl)methyl)-2-(4-(methylcarbamoyl)phenyl) benzo[d]imidazo[2,1-b]thiazole-7-carboxamide]: the “Myc Efficacy (−LogEC50)” value was “− (− ≤3)”.

Turning to `CNC(=O)c1ccc(-c2cn3c(n2)sc2cc(C(=O)NCCN4CC5(COC5)C4)ccc23)cc1` [compound 183, N-(2-(2-oxa-6-azaspiro[3.3]heptan-6-yl)ethyl)-2-(4-(methylcarbamoyl)phenyl) benzo[d]imidazo[2,1-b]thiazole-7-carboxamide], the “Myc Efficacy (−LogEC50)” value is “+ (+ >3 and <5)”.

For `CNC(=O)c1ccc(-c2cn3c(n2)sc2cc(C(=O)NCCN4CCN(C)CC4)ccc23)cc1` [compound 184, 2-(4-(methylcarbamoyl)phenyl)-N-(2-(4-methylpiperazin-1-yl)ethyl)benzo[d]imidazo [2,1-b]thiazole-7-carboxamide], the “Myc Efficacy (−LogEC50)” value is “+ (+ >3 and <5)”.

As for `CNC(=O)c1ccc(-c2cn3c(n2)sc2cc(C(=O)NC4CCNCC4)ccc23)cc1` [compound 185, 2-(4-(methylcarbamoyl)phenyl)-N-(piperidin-4-yl)benzo[d]imidazo[2,1-b]thiazole-7-carboxamide], the “Myc Efficacy (−LogEC50)” value is “++ (++ ≥5 and <6)”.

In the case of `CNC(=O)c1ccc(-c2cn3c(n2)sc2cc(C(=O)N[C@@H](C)COC)ccc23)cc1` [compound 186, (S)-N-(1-methoxypropan-2-(methylcarbamoyl)phenyl) benzo[d]imidazo[2,1-b]thiazole-7-carboxamide], the “Myc Efficacy (−LogEC50)” value was “+ (+ >3 and <5)”.

Take `CNC(=O)c1ccc(-c2cn3c(n2)sc2cc(C(=O)NC(C)CCO)ccc23)cc1` (stereo not shown) [compound 187, N-(4-hydroxybutan-2-yl)-2-(4-(methylcarbamoyl)phenyl) benzo[d]imidazo[2,1-b]thiazole-7-carboxamide]: the “Myc Efficacy (−LogEC50)” value was “− (− ≤3)”.

With `CC[C@@H](CO)NC(=O)c1ccc2c(c1)sc1nc(-c3ccc(C(=O)NC)cc3)cn12` [compound 188, (S)-N-(1-hydroxybutan-2-yl)-2-(4-(methylcarbamoyl)phenyl) benzo[d]imidazo[2,1-b]thiazole-7-carboxamide], the “Myc Efficacy (−LogEC50)” value is “+ (+ >3 and <5)”.

In the case of `CNC(=O)c1ccc(-c2cn3c(n2)sc2cc(C(=O)NCCCOC)ccc23)cc1` [compound 189, N-(3-methoxypropyl)-2-(4-(methylcarbamoyl)phenyl) benzo[d]imidazo[2,1-b]thiazole-7-carboxamide], the “Myc Efficacy (−LogEC50)” value was “− (− ≤3)”.

Take `CNC(=O)c1ccc(-c2cn3c(n2)sc2cc(C(=O)NC4CCN(C(=O)C5CC5)CC4)ccc23)cc1` [compound 190, N-(1-(cyclopropanecarbonyl)piperidin-4-yl)-2-(4-(methylcarbamoyl)phenyl) benzo[d]imidazo[2,1-b]thiazole-7-carboxamide]: the “Myc Efficacy (−LogEC50)” value was “+ (+ >3 and <5)”.

With `CNC(=O)c1ccc(-c2cn3c(n2)sc2cc(C(=O)NCCC(=O)N4CCCCC4)ccc23)cc1` [compound 191, 2-(4-(methylcarbamoyl)phenyl)-N-(3-oxo-3-(piperidin-1-yl)propyl)benzo[d]imidazo [2,1-b]thiazole-7-carboxamide], the “Myc Efficacy (−LogEC50)” value is “+ (+ >3 and <5)”.

Consider `CNC(=O)c1ccc(-c2cn3c(n2)sc2cc(C(=O)N[C@@H](CO)CC(C)C)ccc23)cc1` [compound 192, (R)-N-(1-hydroxy-4-methylpentan-2-yl)-2-(4-(methylcarbamoyl)phenyl) benzo[d]imidazo[2,1-b]thiazole-7-carboxamide], for which the “Myc Efficacy (−LogEC50)” value is listed as “− (− ≤3)”.

Turning to `CCN(CCCN(C)C(=O)c1ccc2c(c1)sc1nc(-c3cccc(C)c3)cn12)CC(F)(F)F` [compound 193, N-(3-(ethyl(2,2,2-trifluoroethyl)amino)propyl) N-methyl-2-(m-tolyl)benzo[d]imidazo[2,1-b]thiazole-7-carboxamide], the “Myc Efficacy (−LogEC50)” value is “+ (+ >3 and <5)”.

On to `CCN(CC)CCCNC(=O)c1ccc2c(c1)sc1nc(-c3cc(C)ccn3)cn12` [compound 194, N-(3-(diethylamino)propyl)-2-(4-methylpyridin-2-yl)benzo[d]imidazo[2,1-b]thiazole-7-carboxamide], for which the “Myc Efficacy (−LogEC50)” value is “+ (+ >3 and <5)”.

For the compound `CNC(=O)c1ccc(-c2cn3c(n2)sc2cc(C(=O)NCC4(O)COC4)ccc23)cc1` [compound 195, N-((3-hydroxyoxetan-3-yl)methyl)-2-(4-(methylcarbamoyl)phenyl) benzo[d]imidazo[2,1-b]thiazole-7-carboxamide], the “Myc Efficacy (−LogEC50)” value is “− (− ≤3)”.

With `CNC(=O)c1ccc(-c2cn3c(n2)sc2cc(C(=O)NC[C@H]4CCNC[C@@H]4O)ccc23)cc1` [compound 196, N-(((3R,4R)-3-hydroxypiperidin-4-yl)methyl)-2-(4-(methylcarbamoyl)phenyl) benzo[d]imidazo[2,1-b]thiazole-7-carboxamide], the “Myc Efficacy (−LogEC50)” value is “+ (+ >3 and <5)”.

Regarding `CNC(=O)c1ccc(-c2cn3c(n2)sc2cc(C(=O)NC(C)C(=O)N(C)C)ccc23)cc1` (stereo not shown) [compound 197, N-(1-(dimethylamino)-1-oxopropan-2-yl)-2-(4-(methylcarbamoyl)phenyl) benzo[d]imidazo[2,1-b]thiazole-7-carboxamide], the “Myc Efficacy (−LogEC50)” value is “+ (+ >3 and <5)”.

In the case of `CNC(=O)c1ccc(-c2cn3c(n2)sc2cc(C(=O)NC4CN(C)C4)ccc23)cc1` [compound 198, N-(1-methylazetidin-3-yl)-2-(4-(methylcarbamoyl)phenyl) benzo[d]imidazo[2,1-b]thiazole-7-carboxamide], the “Myc Efficacy (−LogEC50)” value was “+ (+ >3 and <5)”.

Turning to `CNC(=O)c1ccc(-c2cn3c(n2)sc2cc(C(=O)NC4(CN)CCC4)ccc23)cc1` [compound 199, N-(1-(aminomethyl)cyclobutyl)-2-(4-(methylcarbamoyl)phenyl) benzo[d]imidazo[2,1-b]thiazole-7-carboxamide], the “Myc Efficacy (−LogEC50)” value was “+ (+ >3 and <5)”.

Regarding `CNC(=O)c1ccc(-c2cn3c(n2)sc2cc(C(=O)NCC[C@H](C)N)ccc23)cc1` [compound 200, (S)-N-(3-aminobutyl)-2-(4-(methylcarbamoyl)phenyl) benzo[d]imidazo[2,1-b]thiazole-7-carboxamide], the “Myc Efficacy (−LogEC50)” value was “+ (+ >3 and <5)”.

`CNC(=O)c1ccc(-c2cn3c(n2)sc2cc(C(=O)NCCOC)ccc23)cc1` [compound 201, N-(2-methoxyethyl)-2-(4-(methylcarbamoyl)phenyl) benzo[d]imidazo[2,1-b]thiazole-7-carboxamide]: the “Myc Efficacy (−LogEC50)” value is “+ (+ >3 and <5)”.

In the case of `CNC(=O)c1ccc(-c2cn3c(n2)sc2cc(C(=O)NCCc4cnn(C)c4)ccc23)cc1` [compound 202, N-(2-(1-methyl-1H-pyrazol-4-yl)ethyl)-2-(4-(methylcarbamoyl)phenyl) benzo[d]imidazo[2,1-b]thiazole-7-carboxamide], the “Myc Efficacy (−LogEC50)” value is listed as “− (− ≤3)”.

On to `CNC(=O)c1ccc(-c2cn3c(n2)sc2cc(C(=O)NCC(C)OC)ccc23)cc1` (stereo not shown) [compound 203, N-(2-methoxypropyl)-2-(4-(methylcarbamoyl)phenyl) benzo[d]imidazo[2,1-b]thiazole-7-carboxamide], for which the “Myc Efficacy (−LogEC50)” value was “+ (+ >3 and <5)”.
